Measurements published in the supplement of paper PMC10011410.
± gives the standard deviation of the averaged measurements.

How the values were obtained:
Conditions in all cases: 24 h
U-2 OS [1] = assay: intracellular GSH:GSSG ratio (calculated); higher = more reduced glutathione pool
Procedure: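 Intracellular glutathione in U-2 OS cells after 24 h compound treatment at 5, 10 and 20 uM (some at 40 and 80 uM). Total glutathione and GSSG were measured with the GSH/GSSG-Glo kit, and the GSH:GSSG ratio was calculated. Mean of five technical replicate plates.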

U-2 OS [2] = assay: cell viability (CellTiter-Glo) relative to DMSO (% of control); higher = more viable
Procedure: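 Cell viability of U-2 OS cells by CellTiter-Glo after 24 h compound treatment at 5, 10 and 20 uM (some at 40 and 80 uM), measured in parallel with the glutathione assay, as percent of DMSO control. Five technical replicate plates, averaged.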

U-2 OS [3] = assay: total intracellular glutathione (GSH + GSSG) relative to DMSO (% of control); higher = more glutathione
Procedure: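 Total intracellular glutathione (GSH + GSSG) in U-2 OS cells by GSH/GSSG-Glo after 24 h compound treatment at 5, 10 and 20 uM (some at 40 and 80 uM), as percent of DMSO control. Five technical replicate plates, averaged.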

U-2 OS [4] = assay: cell painting activity score (Mahalanobis distance from DMSO wells); higher = stronger morphological phenotype
How it was run: (§1)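 Using 384-well plates holding about 1,500 U-2 OS cells per well, treatment was applied by pin tool for 24 h at 37 °C, generally at six 2-fold concentrations ranging from 20 μM to 625 nM. Staining with MitoTracker, concanavalin A, phalloidin, wheat germ agglutinin, Hoechst and SYTO 14 preceded Opera Phenix imaging and CellProfiler feature extraction against DMSO cells on the same plate. Activity score and cell count are both referenced to DMSO wells, the former as a Mahalanobis distance. Four replicate plates were averaged for every value.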

U-2 OS [5] = assay: relative cell count vs DMSO (cell painting) (fraction of DMSO control); higher = more cells remaining (less cytotoxic)
How it was run: as §1

| SMILES | intracellular GSH:GSSG ratio (U-2 OS [1]; 5 µM) | intracellular GSH:GSSG ratio (U-2 OS [1]; 10 µM) | cell viability (U-2 OS [2]; 5 µM) | cell viability (U-2 OS [2]; 10 µM) | cell viability (U-2 OS [2]; 20 µM) | cell viability (U-2 OS [2]; 40 µM) | cell viability (U-2 OS [2]; 80 µM) | total intracellular glutathione (U-2 OS [3]; 5 µM) | total intracellular glutathione (U-2 OS [3]; 10 µM) | total intracellular glutathione (U-2 OS [3]; 20 µM) | total intracellular glutathione (U-2 OS [3]; 40 µM) | total intracellular glutathione (U-2 OS [3]; 80 µM) | cell painting activity score (U-2 OS [4]; 0.625 µM) | cell painting activity score (U-2 OS [4]; 1.25 µM) | cell painting activity score (U-2 OS [4]; 2.5 µM) | cell painting activity score (U-2 OS [4]; 5 µM) | cell painting activity score (U-2 OS [4]; 10 µM) | cell painting activity score (U-2 OS [4]; 20 µM) | cell painting activity score (U-2 OS [4]; 40 µM) | cell painting activity score (U-2 OS [4]; 80 µM) | relative cell count (U-2 OS [5]; 0.625 µM) | relative cell count (U-2 OS [5]; 1.25 µM) | relative cell count (U-2 OS [5]; 2.5 µM) | relative cell count (U-2 OS [5]; 5 µM) | relative cell count (U-2 OS [5]; 10 µM) | relative cell count (U-2 OS [5]; 20 µM) | relative cell count (U-2 OS [5]; 40 µM) | relative cell count (U-2 OS [5]; 80 µM) | intracellular GSH:GSSG ratio (U-2 OS [1]; 20 µM) | intracellular GSH:GSSG ratio (U-2 OS [1]; 40 µM) | intracellular GSH:GSSG ratio (U-2 OS [1]; 80 µM) |
| --- | --- | --- | --- | --- | --- | --- | --- | --- | --- | --- | --- | --- | --- | --- | --- | --- | --- | --- | --- | --- | --- | --- | --- | --- | --- | --- | --- | --- | --- | --- | --- |
| COC1=CC=C(S(=O)(O/N=C2C=C(C(C(C)=C\2)=O)C)=O)C=C1 | 4.85 | 2.61 | 31.2 ± 1.5 | 15.9 ± 2 | 9.58 ± 10 | 0.28 ± 0.061 | 0.124 ± 0.018 | 59.9 ± 4 | 41.1 ± 5.9 | 6.59 ± 2.2 | 0.79 ± 0.15 | 0.604 ± 0.13 | 4.25 | 8.9 | 10.5 | 12 | 16.6 | 24.6 | 22.8 | 20.4 | 1.01 | 0.93 | 0.9 | 0.718 | 0.17 | 0.237 | 0.146 | 0.0922 | – | – | – |
| CCCCCCCCCCCC1=C(O)C(=O)C=C(O)C1=O | 32.2 | 27.4 | 102 ± 5.8 | 97.6 ± 2.5 | 98.7 ± 5.4 | 70.1 ± 25 | 93.3 ± 4.2 | – | – | – | – | – | 4.78 | 4.55 | 7.31 | 4.7 | 8.2 | 25 | 22.2 | 21.8 | 0.898 | 0.848 | 0.944 | 0.907 | 0.478 | 0.08 | 0.237 | 0.332 | 35.5 | 15.8 | 31.4 |
| C=CC(=O)Nc1cc2c(Nc3ccc(F)c(Cl)c3)ncnc2cc1OC | 19.9 | 24.8 | 93.5 ± 3.4 | 91.9 ± 1.7 | 86.5 ± 2.2 | – | – | 99.7 ± 5.3 | 96.6 ± 3.8 | 94.5 ± 4.3 | – | – | 5.64 | 6.77 | 6.2 | 7.6 | 7.34 | 7.33 | – | – | 1.02 | 1.06 | 1.05 | 0.989 | 1 | 0.992 | – | – | 20.5 | – | – |
